# From patent US20160045531A1, “COMBINATION THERAPY FOR TREATING CANCER” (EPIZYME, INC., priority 2014, published 2016)
# Tests used:
# [1] = system: H3K79me2; settings: cited from earlier work
# [2] = system: rat xenograft model of MLL-rearranged leukemia; settings: cited from earlier work
# [3] = system: acute leukemia lines bearing MLL translocations; settings: sparing lines without MLL gene translocations; cited from earlier work
# [4] = system: SKM-1 (non-MLL-rearranged AML); assay: Combination proliferation study with Compound A2 (Examples 2/3), SKM-1; type: cell-based, human; settings: non-rearranged SKM-1 cell line
# Method: The HP-D300 digital dispenser (Tecan) was used to dispense compounds in a combinatorial matrix. […] Cell viability was measured via ATP content using CellTiter-Glo® (Promega).
# Viability was determined using CellTiter-Glo® (Promega).
# [5] = system: MOLM-13 cells; assay: Flow cytometric analysis of cell cycle and Annexin V, MOLM-13; type: cell-based, human
# Method: (§1) On Day 0 MOLM-13 cells are seeded at 3,000 cells/mL. On Day 7 and Day 10 MOLM-13 cells are counted and reseeded at 50,000 cells/mL. […] On Day 10 They were redosed again. On Day 14 the experiment was terminated.
# To evaluate the fraction of cells in each cell cycle, flow cytometric analysis was performed. FACS analysis for detection of cell death by apoptosis, and cell cycle was performed.
# Samples were analyzed using the Guava EasyCyte Plus System (Millipore). Cells for cell cycle analysis were pelleted by centrifugation at 200×g for 5 minutes at 4° C., washed twice with ice cold PBS then fixed with 70% ice cold ethanol. All samples were analyzed together at end of experiment. Following fixation cells were washed with PBS and stained with the Guava cell cycle reagent (Millipore 4500-0220) for 30 minutes. Samples were analyzed using the Guava EasyCyte Plus System (Millipore).
# [6] = system: MOLM-13 cells; assay: CD11b and CD14 expression by flow cytometry, MOLM-13; type: cell-based, human
# Method: as §1
# The cells were prepared by washing twice in PBS, followed by fixation in 4% formaldehyde for ten minutes at 37° C. After fixation cells were washed and blocked with blocking buffer for 10 minutes at room temperature. Cells were then incubated in presence of anti-CD14, anti-CD11b or anti-IgG antibody for 1 hour at room temperature while rotating. Cells were washed, re-suspended in PBS and 5,000 events were analyzed using ExpressPro software on the GuavaCyte Plus System.
# [7] = system: SKM-1 cells; assay: Proliferation assay and calculation of synergism (Example 5), SKM-1; settings: non-MLL-rearranged leukemia cell line SKM-1
# Excerpt: The acute myelogenous leukemia cell line MV4-11 (MLL-AF4) (CRL-9591) was obtained from American Type Culture Collection (ATCC), Manassas, Va. and both MOLM-13 (MLL-AF9) (ACC 554) and SKM-1 (ACC 547) cells were obtained from Leibniz Institute DSMZ-German Collection of Microorganisms and Cell Cultures, Braunschweig, Germany. MV4-11 cells were maintained in IMDM supplemented with 10% fetal bovine serum. MOLM-13 and SKM-1 cells were maintained in Roswell Park Memorial Institute medium (RPMI) supplemented with 10% fetal bovine serum. They were cultured in flasks or plates in a humidified 5% CO2 atmosphere.
# Proliferation studies were performed using MOLM-13, MV4-11 and SKM-1 cell lines in vitro to evaluate the cancer cell killing effect of a combination of two agents together on cell growth. Initial proliferation studies were performed to determine the IC50 values of a given compound in each cell line. The cell counts were measured by ATP quantitation using the Promega Cell Titer Glo kit and luminescence values correspond to the amount of ATP in a given well.
# These studies were performed to evaluate both the combinatorial effect of compounds on cell killing and the durability of the effect by washing out one of the agents.
# Compounds evaluated for synergy in the co-treatment phase were tested in a range which was bracketed around the IC50's. The compounds were plated to a 96 well plate in a matrix format which includes increasing concentrations of each drug in the combination in a constant ratio, in addition to the effect of each compound alone in the study. […] Maximum and minimum inhibition (DMSO alone) controls were used in each plate to calculate fraction affected (Fa) of a test well. DMSO concentration was kept at 0.1% v/v. The drug combination analysis was performed utilizing the Chou-Talalay method. Synergy was determined using the software package Calcusyn by Biosoft. The combination index (CI) is the term used to describe the level of synergy or antagonism in a given test system. A combination index less than one indicates synergy, and a CI greater than one indicates antagonism.
# The drug combination analysis was performed using the Chou-Talalay method. Graphs representing values of combination index (CI) versus Fractional effect (Fa) known as Fa-CI plots were generated and synergy was evaluated. Drug synergy was statistically defined by CI values less than 1, antagonism by CI>1 and additive effect by CI equal to 1.
structure (smiles),measurement,setting,value
"CC(C)N(C[C@H]1O[C@@H](n2cnc3c(N)ncnc32)[C@H](O)[C@@H]1O)[C@H]1C[C@@H](CCc2nc3cc(C(C)(C)C)ccc3[nH]2)C1 [Compound A2, (2R,3R,4S,5R)-2-(6-amino-9H-purin-9-yl)-5-((((1r,3S)-3-(2-(5-(tert-butyl)-1H-benzo[d]imidazol-2-yl)ethyl)cyclobutyl) (isopropyl)amino)methyl) tetrahydrofuran-3,4-diol]",Inhibition of intracellular DOT1L activity (H3K79 methylation),[1]; across a spectrum of AML cell lines,concentration-dependent inhibition of H3K79 methylation
same,Time for H3K79me2 to return to pretreatment levels after the latency period,[1]; after the 3-day latency period,4 days
same,Period without recovery of H3K79 methylation after wash out,[1]; after wash out of Compound A2,3 days
same,Depletion of cellular levels of H3K79me2,[1]; four days of treatment,> 80%
same,Tumor response in xenograft,[2],sustained tumor regressions
same,Cell killing in vitro,[3],promoted cell killing
same,Single agent antiproliferative effect in SKM-1,[4],no effect alone
same,EC50,"[5]; Homo sapiens, 168 h, MOLM-13, single agent, 7 days, Annexin-V staining, read-out: Midpoint value (EC50) of decrease in total content of viable cells",364 ± 18 nM
same,"Apoptotic cells (Annexin-V staining), single agent","[5]; MOLM-13, after 7 days of treatment",concentration-dependent increase in apoptotic cells
same,"Apoptosis induction over 14 day course, single agent","[5]; MOLM-13, 156 nM Compound A2 or 63 nM Ara-C",much more robust induction of apoptosis
same,"Sub-G1 cell population, single agent","[5]; MOLM-13, 14 day treatment, 156 nM Compound A2 or 63 nM Ara-C","moderate, time-dependent increase in sub-G1 population"
same,"Differentiation markers CD11b and CD14, single agent",[6],time and concentration dependent up-regulation
same,Single agent antiproliferative activity in SKM-1,[7],no single agent activity
